Consider 13 compounds from patent publication US12331041B2, “GLP-1 receptor agonists and uses thereof” (Pfizer Inc., priority 2018, dated 2025).

Counter-ions that a name gives are not always drawn.

Test [1] has as its target T1, human GLP-1R (Homo sapiens, UniProt P43220, G168S).
T1 construct: expressed in transfected cells
In words: CHO GLP-1R Clone H6 - Assay 1 (HTRF cAMP agonist assay). Conditions: for EC50: CHO Clone H6, high GLP-1R density, cAMP, geometric mean; for Emax / Assay 1 Emax (%): CHO Clone H6, relative to saturating full agonist GLP-1 7-36 (1 μM), arithmetic mean. In kind it is cell-based. How it is done:
GLP-1R-mediated agonist activity was determined with a cell-based functional assay utilizing an HTRF (Homogeneous Time-Resolved Fluorescence) cAMP detection kit (cAMP HI Range Assay Kit; CisBio cat #62AM6PEJ) that measures cAMP levels in the cell. The method is a competitive immunoassay between native cAMP produced by the cells and exogenous cAMP labeled with the dye d2, The tracer binding is visualized by a mAb anti-cAMP labeled with Cryptate. The specific signal (i.e. energy transfer) is inversely proportional to the concentration of cAMP in either standard or experimental sample.
The human GLP-1R coding sequence (NCBI Reference Sequence NP_002053.3, including naturally-occurring variant Gly168Ser) was subcloned into pcDNA3 (Invitrogen) and a cell line stably expressing the receptor was isolated (designated Clone H6).
A 1 mL sample of the cell suspension in growth media was counted on a Becton Dickinson ViCell to determine cell viability and cell count per mL. The remaining cell suspension was then adjusted with growth media to deliver 2000 viable cells per well using a Matrix Combi Multidrop reagent dispenser, and the cells were dispensed into a white 384 well tissue culture treated assay plate (Corning 3570). The assay plate was then incubated for 48 hours at 37° C. in a humidified environment in 5% carbon dioxide.
Varying concentrations of each compound to be tested (in DMSO) were diluted in assay buffer (HBSS with Calcium/Magnesium (Lonza/BioWhittaker cat #10-527F)/0.1% BSA (Sigma Aldrich cat #A7409-1L)/20 mM HEPES (Lonza/BioWhittaker cat #17-737E) containing 100 μM 3-isobutyl-1-methylxanthin (IBMX; Sigma cat #15879). The final DMSO concentration is 1%.
After 48 hours, the growth media was removed from the assay plate wells, and the cells were treated with 20 μL of the serially diluted compound in assay buffer for 30 minutes at 37° C. in a humidified environment in 5% carbon dioxide. Following the 30 minute incubation, 10 μL of labeled d2 cAMP and 10 μL of anti-cAMP antibody (both diluted 1:20 in cell lysis buffer; as described in the manufacturer's assay protocol) were added to each well of the assay plate. The plates were then incubated at room temperature and after 60 minutes, changes in the HTRF signal were read with an Envision 2104 multi-label plate reader using excitation of 330 nm and emissions of 615 and 665 nm. Raw data were converted to nM cAMP by interpolation from a cAMP standard curve (as described in the manufacturer's assay protocol) and the percent effect was determined relative to a saturating concentration of the full agonist GLP-17-36 (1 μM) included on each plate. EC50 determinations were made from agonist dose-response curves analyzed with a curve fitting program using a 4-parameter logistic dose response equation.
Background: Time-resolved FRET reads energy transfer from a long-lived donor to a nearby acceptor.

Test [2] has as its target T2, human GLP-1R (Homo sapiens, UniProt P43220, L260F).
T2 construct: expressed in transfected cells; host or cells: CHO Flp-In T-REx, clonal line C6 (pcDNA5-FRT-TO)
The test is described as follows: CHO GLP-1R Clone C6 - Assay 2 (HTRF cAMP agonist assay). Conditions: for EC50: CHO clone C6, low GLP-1R density, cAMP, geometric mean; for Emax: CHO clone C6, relative to saturating full agonist GLP-1 (1 μM), arithmetic mean. The class given is cell-based. How it is done:
GLP-1R-mediated agonist activity was determined with a cell-based functional assay utilizing an HTRF (Homogeneous Time-Resolved Fluorescence) cAMP detection kit (cAMP HI Range Assay Kit; Cis Bio cat #62AM6PEJ) that measures cAMP levels in the cell. The method is a competitive immunoassay between native cAMP produced by the cells and exogenous cAMP labeled with the dye d2. The tracer binding is visualized by a mAb anti-cAMP labeled with Cryptate. The specific signal (i.e. energy transfer) is inversely proportional to the concentration of cAMP in either a standard or an experimental sample.
The human GLP-1R coding sequence (NCBI Reference Sequence NP_002053.3, including naturally-occurring variant Leu260Phe) was subcloned into pcDNA5-FRT-TO and a clonal CHO cell line stably expressing a low receptor density was isolated using the Flp-In™ T-Rex™ System, as described by the manufacturer (ThermoFisher).
A 1 mL sample of the cell suspension in growth media was counted on a Becton Dickinson ViCell to determine cell viability and cell count per mL. The remaining cell suspension was then adjusted with growth media to deliver 1600 viable cells per well using a Matrix Combi Multidrop reagent dispenser, and the cells were dispensed into a white 384 well tissue culture treated assay plate (Corning 3570). The assay plate was then incubated for 48 h at 37° C. in a humidified environment (95% O2, 5% CO2)
Varying concentrations of each compound to be tested (in DMSO) were diluted in assay buffer [HBSS with Calcium/Magnesium (Lonza/BioWhittaker cat #10-527F)/0.1% BSA (Sigma Aldrich cat #A7409-1L)/20 mM HEPES (Lonza/BioWhittaker cat #17-737E)] containing 100 μM 3-isobutyl-1-methylxanthin (IBMX; Sigma cat #15879). The final DMSO concentration in the compound/assay buffer mixture is 1%.
After 48 h, the growth media was removed from the assay plate wells, and the cells were treated with 20 μL of the serially diluted compound in assay buffer for 30 min at 37° C. in a humidified environment (95% O2, 5% CO2). Following the 30 min incubation, 10 μL of labeled d2 cAMP and 10 μL of anti-cAMP antibody (both diluted 1:20 in cell lysis buffer; as described in the manufacturer's assay protocol) were added to each well of the assay plate. The plates were then incubated at room temperature and after 60 minutes, changes in the HTRF signal were read with an Envision 2104 multi-label plate reader using excitation of 330 nm and emissions of 615 and 665 nm. Raw data were converted to nM cAMP by interpolation from a cAMP standard curve (as described in the manufacturer's assay protocol) and the percent effect was determined relative to a saturating concentration of the full agonist GLP-1 (1 μM) included on each plate. EC50 determinations were made from agonist dose response curves analyzed with a curve fitting program using a 4-parameter logistic dose response equation.

T2 sequence (P43220 24-463 L260F): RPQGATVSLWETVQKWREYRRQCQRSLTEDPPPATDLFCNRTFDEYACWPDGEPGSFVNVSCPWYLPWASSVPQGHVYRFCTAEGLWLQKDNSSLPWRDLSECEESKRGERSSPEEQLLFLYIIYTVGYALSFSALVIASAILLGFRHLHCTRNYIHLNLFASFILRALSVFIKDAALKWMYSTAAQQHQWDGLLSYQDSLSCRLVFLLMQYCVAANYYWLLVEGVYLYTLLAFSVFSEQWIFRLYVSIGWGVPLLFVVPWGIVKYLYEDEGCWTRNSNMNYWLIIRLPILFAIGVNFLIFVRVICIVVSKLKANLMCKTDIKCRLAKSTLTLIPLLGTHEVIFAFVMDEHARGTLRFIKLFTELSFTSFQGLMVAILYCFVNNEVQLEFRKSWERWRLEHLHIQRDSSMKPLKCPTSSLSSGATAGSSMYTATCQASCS
T1 sequence (P43220 24-463 G168S): as the sequence (P43220 24-463 L260F) above, with G145S, F237L counted along it

In the case of `N#Cc1ccc(COc2nc(N3CCC4(CC3)CC4c3nc4ccc(C(=O)O)cc4n3CC3CCO3)c(F)cc2F)c(F)c1` (single isomer, unassigned; ent-1) [Example 57], in test [1], the EC50 was found to be 0.3 nM and the Emax worked out at 88%. In test [2], this compound yielded an EC50 of 4.1 nM and an Emax of 98%.
Consider `COCCn1c(C2CC23CCN(c2ccnc(OCc4ccc(Cl)cc4F)n2)CC3)nc2ccc(C(=O)O)cc21` (single isomer, unassigned; ent-2) [Example 47, Ammonium 2-(6-{2-[(4-chloro-2-fluorobenzyl)oxy]pyrimidin-4-yl}-6-azaspiro[2.5]oct-1-yl)-1-(2-methoxyethyl)-1H-benzimidazole-6-carboxylate, ENT-2], for which, in test [1], the EC50 came to 86 nM and the “Assay 1 Emax (%)” value is 92%. In addition, in test [2], the EC50 worked out at 1700 nM and the Emax is 100%.
For the compound `O=C(O)c1ccc2nc(CN3CCC(c4nccnc4OCc4ccc(Cl)cc4F)CC3)n(Cc3cocn3)c2c1` [Example 21, 2-[(4-{3-[(4-chloro-2-fluorobenzyl)oxy]pyrazin-2-yl}piperidin-1-yl)methyl]-1-(1,3-oxazol-4-ylmethyl)-1H-benzimidazole-6-carboxylic acid, trifluoroacetate salt], in test [1], the EC50 was 14 nM and the Emax came to 73%. In test [2], this compound showed an EC50 of 370 nM and an Emax of 91%.
In test [1], `O=C(O)c1ccc2nc(C3CC34CCN(c3nc(OCc5ccc(Cl)cc5F)ncc3F)CC4)n(Cc3cnco3)c2c1` (centres unmarked) [Example 45, 2-(6-{2-[(4-chloro-2-fluorobenzyl)oxy]-5-fluoropyrimidin-4-yl}-6-azaspiro[2.5]oct-1-yl)-1-(1,3-oxazol-5-ylmethyl)-1H-benzimidazole-6-carboxylic acid, trifluoroacetate salt, from P7] gave an EC50 of 12 nM and an Emax of 72%. In test [2], this compound had an EC50 of 230 nM and an Emax of 83%.
On to `O=C(O)c1ccc2nc(CN3CCC(c4cccnc4OCc4ccc(F)cc4F)CC3)n(C[C@@H]3CCO3)c2c1` [Example 12, ammonium 2-[(4-{2-[(2,4-difluorobenzyl)oxy]pyridin-3-yl}piperidin-1-yl)methyl]-1-[(2S)-oxetan-2-ylmethyl]-1H-benzimidazole-6-carboxylate], for which the figures for the EC50 in test [1] and in test [2] were 4.7 nM and 110 nM, respectively. Besides, the Emax was 78% in test [1] and 93% in test [2].
For the compound `Cn1c(C2CC23CCN(c2nc(OCc4ccc(Cl)cc4F)ncc2F)CC3)nc2ccc(C(=O)O)nc21` (centres unmarked) [Example 40, 2-(6-{2-[(4-chloro-2-fluorobenzyl)oxy]-5-fluoropyrimidin-4-yl}-6-azaspiro[2.5]oct-1-yl)-3-methyl-3H-imidazo[4,5-b]pyridine-5-carboxylic acid, trifluoroacetate salt, from P7], the EC50 in test [1] was 150 nM; in test [2] it was 2000 nM. In addition, the results for the Emax in test [1] and in test [2] were 77% and 100%, respectively.
For `O=C(O)c1ccc2nc(C3CC34CCN(c3ncc(F)c(OCc5ccc(Cl)cc5F)n3)CC4)n(CC3CCO3)c2c1` (single isomer, unassigned) [Example 51], in test [1], the EC50 stood at 470 nM and the “Assay 1 Emax (%)” value worked out at 71%. Besides, in test [2], the EC50 was greater than 20000 nM.
With `C[C@H]1CN(c2nc(OCc3ccc(Cl)cc3F)ncc2F)CCN1Cc1nc2ccc(C(=O)O)cc2n1C[C@@H]1CCCO1` [Example 71, 2-{[(2S)-4-{2-[(4-chloro-2-fluorobenzyl)oxy]-5-fluoropyrimidin-4-yl}-2-methylpiperazin-1-yl]methyl}-1-[(2S)-tetrahydrofuran-2-ylmethyl]-1H-benzimidazole-6-carboxylic acid], the EC50 in test [1] came out at 8.9 nM; in test [2] it was 160 nM. Further, the Emax was found to be 82% in test [1] and 90% in test [2].
As to `O=C(O)c1ccc2nc(CN3CCC(c4ccnc(OCc5ccc(Cl)cc5F)n4)CC3)n(C[C@@H]3CCO3)c2n1` [Example 67, ammonium 2-[(4-{2-[(4-chloro-2-fluorobenzyl)oxy]pyrimidin-4-yl}piperidin-l-yl)methyl]-3-[(2S)-oxetan-2-ylmethyl]-3H-imidazo[4,5-b]pyridine-5-carboxylate], in test [1], the EC50 came to 3.3 nM and the Emax worked out at 90%. Moreover, in test [2], the EC50 came to 52 nM and the Emax was found to be 120%.
In the case of `O=C(O)c1ccc2nc(CN3CCN(c4cccnc4OCc4ccc(Cl)cc4F)CC3)n(C[C@@H]3CCO3)c2c1` [Example 33, Ammonium 2-[(4-{2-[(4-chloro-2-fluorobenzyl)oxy]pyridin-3-yl}piperazin-1-yl)methyl]-1-[(2S)-oxetan-2-ylmethyl]-1H-benzimidazole-6-carboxylate], the 50% effective concentration (EC50) in test [1] is 3.1 nM; in test [2], 84 nM. Also, the Emax is 93% in test [1] and 110% in test [2].
In test [1], `Cn1c(C2CC23CCN(c2nc(OCc4ccc(C#N)cc4F)c(F)cc2F)CC3)nc2ccc(C(=O)O)cc21` (centres unmarked) [Example 59, 2-(6-{6-[(4-cyano-2-fluorobenzyl)oxy]-3,5-difluoropyridin-2-yl}-6-azaspiro[2.5]oct-1-yl)-1-methyl-1H-benzimidazole-6-carboxylic acid, trifluoroacetate salt] came in with an EC50 of 6.8 nM and an Emax of 80%. In test [2], the EC50 came to 120 nM and the Emax is 85%.
In test [2], `N#Cc1ccc(COc2nccnc2C2CCN(Cc3nc4ccc(C(=O)O)cc4n3C[C@@H]3CCO3)CC2)c(F)c1` [Example 28, ammonium 2-[(4-{3-[(4-cyano-2-fluorobenzyl)oxy]pyrazin-2-yl}piperidin-1-yl)methyl]-1-[(2S)-oxetan-2-ylmethyl]-1H-benzimidazole-6-carboxylate] came in with an EC50 of 150 nM and an Emax of 98%.
For the compound `N#Cc1ccc(COc2ncccc2C2CCN(Cc3nc4ccc(C(=O)O)cc4n3C[C@@H]3CCO3)CC2)c(F)c1` [Example 5, 2-[(4-{2-[(4-cyano-2-fluorobenzyl)oxy]pyridin-3-yl}piperidin-1-yl)methyl]-1-[(2S)-oxetan-2-ylmethyl]-1H-benzimidazole-6-carboxylic acid], in test [2], the midpoint of the response, the EC50, lay at 42 nM and the Emax is 95%.

As a reminder, the EC50 is the concentration needed to bring the measured effect to its halfway point. A higher EC50 goes with lower potency in that assay. The term Emax denotes the size of the effect at its maximum, as opposed to the concentration needed.
